Each structure is given as a SMILES string. Several values for one entry are separate records, joined by “and”; a condition that tells them apart may be missing. Equal entries are not always repeated. Where two headings read alike, the source gives them in different places.

Series [1] concerns LPS-induced stimulation of PGE2 production by primary human monocytes. The experiment in a line: LPS induced monocyte activation (PGE2 ELISA). It is filed as cell-based. The conditions noted are these: for % Activity: Fig 4h, PGE2 production, one line per donor; for IC50: primary human monocytes, N=3, read-out: IC50, inhibition of LPS-induced PGE2 production. The text has this:
Monocytes were isolated from whole peripheral blood donated by healthy volunteers. Protocols were approved by Health Sciences Research Ethics Board (REB) at the University of Toronto (ethics approval #22203). All experiments were repeated with three distinct donors who provided informed consent. Briefly, whole blood was layered on Histopaque-1077 (Sigma) and the mononuclear cell fraction was isolated by density centrifugation. Platelets were removed through a series of washes. Monocytes were seeded at a density of 200,000/well in a 96-well plate (Becton Dickinson). Medium was changed 2 h post-seeding to remove non-adherent cells. […] Dex derived from degraded Dex-TEG-Dex was prepared by dissolving Dex-TEG-Dex in ethanol at 10 mg/ml, adding to culture medium to achieve a concentration of 10 µg/ml, and subsequent incubation of the solution at 37 °C and 5% CO2 until the dimer had fully degraded, as confirmed by HPLC. […] Samples were incubated for 15 min at 37 °C and 5% CO2, followed by addition of a 2 µl lipopolysaccharide stock solution (LPS, Sigma) to obtain a final concentration of 50 µg/ml. Following overnight exposure to LPS, supernatant was collected and analyzed for PGE2 using a PGE2 ELISA kit according to the manufacturer’s instructions (R&D Systems).
(In general: An ELISA detects its analyte on a solid surface through an enzyme-linked reagent.)

The nature of another series: In vitro release. It is filed as physicochemical. Conditions: for Cumulative Dex Release (%), avg / Cumulative Dex Release (ng), avg / Cumulative Dex Release / Cumulative SM Release (%), avg / Cumulative SM Release (ng), avg: Fig 6c; for Cumulative Dex Release: single replicates; for Cumulative TA Release: samples and avg; for Cumulative TA Release (%): FBS; for Cumulative Dex Release (%), avg / Cumulative Dex Release (ng), avg / Cumulative TA Release (%) / Cumulative SM Release (%), avg / Cumulative SM Release (ng), avg: avg. The method, then:
Pellets for release studies. Crystalline drug dimers were weighed on a stainless steel coupon. In the case of blends with a second drug, the dimer and drug were mixed at the desired mass ratio with mortar and pestle prior to weighing. Samples were transferred to a heat press (Carver Laboratory Press). A PTFE mold containing an array of 1 mm diameter holes of 1 mm depth was placed on top of the melt, and pressure was applied for 2 min. Molded pellets were cooled to room temperature and punched out of the mold, yielding a pellet of 1 mm height × 1 mm diameter.
Release studies were carried out using different media, including PBS (pH 7.4, Gibco), 100% FBS (Sigma, F1051), 1% FBS in PBS pH 7.4, and 3.6% BSA (Sigma, A7906) in PBS (pH 7.4, Gibco). […] Samples were incubated in release medium at 37 °C under constant agitation on an orbital shaker at 115 rpm (VWR). At designated timepoints, sampling was performed by complete removal of medium and replenishment with fresh buffer. Sampling timepoints included 24 h and then every 3–4 days thereafter. For PBS release conditions, samples were analyzed directly. For samples with protein (100% FBS, 1% FBS, 3.6% BSA), protein was precipitated by addition of acetonitrile. Samples were vortexed and centrifuged to separate extracted drug from precipitated protein. The supernatant was then analyzed for drug concentration by HPLC.

For `C[C@@H]1C[C@H]2[C@@H]3CCC4=CC(=O)C=C[C@]4(C)[C@@]3(F)[C@@H](O)C[C@]2(C)[C@@]1(O)C(=O)CO` [Dex from Degraded Dex-TEG-Dex], the “% Activity” value in series [1] (0.05 nM, 50 pM) is 133.56% and 95.05% and 109.87%; in series [1] (0.1 nM, 0.0001 µM), 71.31% and 70.97% and 72.68%; in series [1] (0.5 nM, 0.0005 µM), 92.91% and 70.93% and 94.26%; in series [1] (1 nM, 0.001 µM), 74.23% and 63.23% and 72.65%; in series [1] (5 nM, 0.005 µM), 59.75% and 37.69% and 27.50%; in series [1] (10 nM, 0.01 µM), 60.49% and 37.84% and 31.81%. For the same compound, in series [1] (100 nM, 0.1 µM), the “% Activity” value is 63.88% and 16.49% and 17.83%. Also, the concentration for half-maximal inhibition (IC50) in series [1] (listed as Dex from Dex-TEG-Dex) amounted to 0.93 ± 0.49 nM.

With `C[C@@H]1C[C@H]2[C@@H]3CCC4=CC(=O)C=C[C@]4(C)[C@@]3(F)[C@@H](O)C[C@]2(C)[C@@]1(O)C(=O)CO` [Dex, dexamethasone, reference compound], the “Cumulative Dex Release (%), avg” value turned out to be 0.0437% in the series “In vitro release” (Day 1); 0.15% in “In vitro release” (Day 3); 0.45% in the series “In vitro release” (Day 8); 0.56% in the series “In vitro release” (Day 10); 0.78% in the series “In vitro release” (Day 14). In addition, the “Cumulative Dex Release (ng), avg” value is 365.83 ng in “In vitro release” (Day 1); 1234.13 ng in “In vitro release” (Day 3); 3751.80 ng in “In vitro release” (Day 8); 4651.15 ng in the series “In vitro release” (Day 10); 6525.91 ng in the series “In vitro release” (Day 14). Also, the “Cumulative Dex Release” value in the series “In vitro release” (Day 1) is 489.28 ng and 390.83 ng and 217.38 ng; in the series “In vitro release” (Day 3), 1469.66 ng and 1518.28 ng and 714.45 ng; in “In vitro release” (Day 8), 4281.72 ng and 3939.60 ng and 3034.10 ng; in “In vitro release” (Day 10), 5032.13 ng and 5126.71 ng and 3794.60 ng; in the series “In vitro release” (Day 14) it was 7249.57 ng and 6858.64 ng and 5469.52 ng. Besides, the “% Activity” value was 141.66% and 109.12% and 86.18% in series [1] (0.05 nM, 50 pM); 118.30% and 90.43% and 82.49% in series [1] (0.1 nM, 0.0001 µM); 96.26% and 65.64% and 103.04% in series [1] (0.5 nM, 0.0005 µM); 66.03% and 45.78% and 57.92% in series [1] (1 nM, 0.001 µM); 74.59% and 37.73% and 56.77% in series [1] (5 nM, 0.005 µM); 69.04% and 28.95% and 33.87% in series [1] (10 nM, 0.01 µM). Moreover, the “% Activity” value in series [1] (100 nM, 0.1 µM) is 42.88% and 13.38% and 14.89%. Also, the IC50 in series [1] (Monocyte) was found to be 1.52 ± 1.24 nM.

Take `CC1(C)OC2CC3C4CCC5=CC(=O)C=CC5(C)C4(F)C(O)CC3(C)C2(C(=O)COC(=O)OCCOCCOCCOC(=O)OCC(=O)C23OC(C)(C)OC2CC2C4CCC5=CC(=O)C=CC5(C)C4(F)C(O)CC23C)O1` (stereo not drawn) [TA-TEG-TA]: the “Cumulative TA Release” value in the series “In vitro release” (Fig 5b pellet 1x1 mm, 4 ml FBS, Day 3) was 5664.02 ng and 5830.61 ng and 10508.43 ng and 8884.74 ng and 7887.68 ng; in “In vitro release” (Fig 5b pellet 1x1 mm, 4 ml FBS, Day 3, mean), 7755.10 ng; in “In vitro release” (Fig 5b pellet 1x1 mm, 4 ml FBS, Day 10) it was 24788.43 ng and 27087.36 ng and 33297.79 ng and 37315.92 ng and 18944.25 ng; in the series “In vitro release” (Fig 5b pellet 1x1 mm, 4 ml FBS, Day 10, mean), 28286.75 ng; in “In vitro release” (Fig 5b pellet 1x1 mm, 4 ml FBS, Day 14) it was 34850.40 ng and 35016.99 ng and 40361.16 ng and 49853.28 ng and 32172.64 ng; in the series “In vitro release” (Fig 5b pellet 1x1 mm, 4 ml FBS, Day 14, mean), 38450.90 ng. Also, the “Cumulative TA Release” value is 2977.29 ng and 2848.37 ng and 4097.61 ng in “In vitro release” (Fig 5f microparticles, 10 ml FBS, 1st time point (day not given)); 3307.76 ng in the series “In vitro release” (Fig 5f microparticles, 10 ml FBS, 1st time point (day not given), mean); 14594.84 ng and 16537.75 ng and 15417.43 ng in the series “In vitro release” (Fig 5f microparticles, 10 ml FBS, 2nd time point (day not given)); 15516.68 ng in “In vitro release” (Fig 5f microparticles, 10 ml FBS, 2nd time point (day not given), mean); 49825.05 ng and 51101.90 ng and 51098.83 ng in the series “In vitro release” (Fig 5f microparticles, 10 ml FBS, 3rd time point (day not given)); 50675.26 ng in the series “In vitro release” (Fig 5f microparticles, 10 ml FBS, 3rd time point (day not given), mean). Further, the “Cumulative TA Release” value is 60024.55 ng and 61820.14 ng and 64573.36 ng in the series “In vitro release” (Fig 5f microparticles, 10 ml FBS, 4th time point (day not given)); 62139.35 ng in the series “In vitro release” (Fig 5f microparticles, 10 ml FBS, 4th time point (day not given), mean); 83317.99 ng and 79582.57 ng and 89772.87 ng in “In vitro release” (Fig 5f microparticles, 10 ml FBS, 5th time point (day not given)); 84224.47 ng in “In vitro release” (Fig 5f microparticles, 10 ml FBS, 5th time point (day not given), mean). In addition, the “Cumulative TA Release (%)” value in “In vitro release” (Fig 5b pellet, Day 1) stood at 0.13%; in “In vitro release” (Fig 5b pellet, Day 3), 0.96%; in “In vitro release” (Fig 5b pellet, Day 7), 2.37%; in the series “In vitro release” (Fig 5b pellet, Day 10), 3.49%; in “In vitro release” (Fig 5b pellet, Day 14) it was 4.75%; in the series “In vitro release” (Fig 5f microparticles, 1st time point), 2.67%. The “Cumulative TA Release (%)” value is reported as 12.50% in the series “In vitro release” (Fig 5f microparticles, 2nd time point); 40.83% in the series “In vitro release” (Fig 5f microparticles, 3rd time point); 50.07% in the series “In vitro release” (Fig 5f microparticles, 4th time point); 67.87% in the series “In vitro release” (Fig 5f microparticles, 5th time point).

With `CCN(CC)CCNC(=O)c1c(C)[nH]c(/C=C2\C(=O)Nc3ccc(F)cc32)c1C` [sunitinib malate, reference compound], the “Cumulative SM Release (%), avg” value is 3.88% in the series “In vitro release” (Day 1); 5.66% in “In vitro release” (Day 3); 6.76% in the series “In vitro release” (Day 8); 7.42% in “In vitro release” (Day 10); 8.14% in “In vitro release” (Day 14). For the same compound, the “Cumulative SM Release (ng), avg” value in the series “In vitro release” (Day 1) is 5838.79 ng; in “In vitro release” (Day 3), 8518.35 ng; in the series “In vitro release” (Day 8), 10163.91 ng; in “In vitro release” (Day 14) it was 12242.96 ng.

For orientation: IC50 means the midpoint of a concentration-inhibition curve.

For the origin of these results see article PMC8129133, “Polymer-free corticosteroid dimer implants for controlled and sustained drug delivery” (Nature Communications, 2021).
